Laboratory results from patent publication US20180207228A1, “PEPTIDE COMBINATIONS AND USES THEREOF FOR TREATING GRASS ALLERGY” (ALK-Abelló A/S, priority 2015, published 2018).
Like-named read-outs stand apart in the source and are kept apart here. Where no end group is shown, it is not given here.

Legend:
[1] = Extended solubility and short term stability study (visual, U-HPLC recovery, DLS, 90LS, UV-VIS, sum of scores); conditions: for solubility: pH 4.5
Protocol: For that purpose, the peptides were provided as acetate salts (produced by Innovagen® at a >10 mg scale of manufacturing). To take into account batch-to-batch variations, some peptides were tested from other batches of the manufacturer Innovagen®, as well as from another manufacturer (Almac) and from in-house production. Solubility experiments were performed on peptide in solution in concentrations ranging from 0.5 mg/mL to 3 mg/mL (dry matter)—with the following solvents: • Water • Acetate buffer, pH 4.5 (25 mM sodium acetate containing 250 mM D-Mannitol) • Phosphate buffer, pH 7.0 (25 mM sodium phosphate containing 250 mM D-Mannitol) • Glycine buffer, pH 8.5 (25 mM glycine containing 250 mM D-Mannitol)
The solubility of the peptides was initially investigated by visual inspection and U-HPLC recovery. Visual inspection included assessment of turbidity and presence of particles/aggregates of each peptide solution before and after centrifugation as well as visual inspection of pelleted material. The visual inspection were reported as “clear solution”, “very small precipitation only visible with a magnifier”, “precipitation visible/turbid solution” or “more precipitation/turbid solution”. Filtration of peptide solutions were conducted using syringe based filters containing a polyethersulfone (PES) membrane chemistry and a pore size of 0.2 μm. The amount of the peptide in the supernatant of a filtered sample was determined using U-HPLC with reverse phase chromatography and recovery were determined as described in Example 5.
Peptide solutions were investigated at a time point of 1 hour after production, but were also repeated at later time point (e.g. 24. 48 or 96 hours) to investigate the stability of the peptides.
Peptide solutions were investigated to determine the presence of turbidity/particles/aggregates by use of optical density (OD) and change in UV-VIS absorbance at a wavelength of 320 nm, of the filtrate. […] In addition or as an alternative, the amount of the peptide in the supernatant of a filtered sample was determined using U-HPLC as described above, with the exception that the recovery was determined by dividing the peak area of the filtered sample in relation to the peak area in the original solution prior to filtration. See also Example 5 for further details regarding UV-VIS, and recovery measured by U-HPLC.
The peptides were scored in relation to the outcome of the above mentioned tests: For each peptide in a given buffer and at a given concentration, a sum of test scores was calculated and the sum used to rank the peptides according to solubility: • 1. […] DLS peak 1 number 3 nm gave a score of 1, 3-10 nm gave a score of 2, 10-100 nm gave a score of 3, >100 nm gave a score of 4. • 5. 90LS at 400 nm: Intensity <450 gave a score of 1, <800 gave a score of 2, >800 gave a score of 3. • 6. UV-VIS change in absorbance at 320 nm within 24 hours: 0.01 gave a score of 1, ≤0.05 gave a score of 2, 0.0.2 gave a score of 3 and >0.2 gave a score of 4.

[2] = test system: release of IL-5 upon T cell activation; assay: Fluorospot assay, IL-5 release (DK1-TCL01, US1-TCL01); format: cell-based, human; conditions: head prints TCL-02 DK1; text: 25 TCL-01 DK1 lines
Summary of the method: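 A peptide counted as a hit at ≥20 SFC/10^6 cells, stimulation index ≥2 over medium, and p and Poisson ≤0.05. Cells came from TCL01 lines, raised from allergic donors' CD8-depleted PBMCs over 14 days of natural-allergen stimulation with IL-2. They were exposed to 2 μg/ml peptide or peptide mix for 20 h at 37° C.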

Row | Substance | solubility by ranking scheme based on a sum of scores ([1]; 3 mg/ml, buffers tested) | solubility in aqueous solutions and short-term stability ([1]; pH in the range of 4.5 to 8.5) | solubility in aqueous solutions and short-term stability [1] | solubility [1] | IL-5-Fluorospotr % donor coverage (TCL-02 DK1) [2] [%] | solubility in all the test samples (concentrations and pH tested), all solubility tests [1]
1 | AYESYKFIPALEAAVKQAYA-OH [peptide 285] | good solubility | sufficiently soluble | – | – | – | –
2 | DKYRTFVATFGAASNKAFAE-OH [peptide 231] | – | – | sufficiently soluble | acceptable solubility | – | –
3 | PANDKFTVFEAAFNNAIKAS-OH [compound 70] | – | – | – | – | 16.00 | –
4 | STGGAYESYKFIPALEAAVK-OH [compound 71] | – | – | sufficiently soluble | acceptable solubility | 32.00 | good solubility
5 | TDDNEEPIAPYHFDLSGHAF-OH [peptide 204] | – | – | sufficiently soluble | acceptable solubility | – | good solubility
6 | VATLSEALRIIAGTLEVHAV-OH [compound 67] | – | – | – | – | 32.00 | –
7 | WGAIWRIDTPDKLTGPFTVR-OH [peptide 211] | – | – | sufficiently soluble | acceptable solubility | – | –
